Results published in patent US20260258073A1, “CRYSTALLINE FORMS OF A NEUROACTIVE STEROID” (SAGE THERAPEUTICS, INC., priority 2022, published 2026).

Columns and labels:
[1] = Dynamic vapor sorption (DVS) isotherm of the solid form; format: physicochemical
Description: DVS was measured using a SMS (Surface Measurement Systems) DVS Intrinsic. The relative humidity at 25° C. was calibrated against deliquescence point of LiCl, Mg(NO3)2 and KCl.
To investigate the solid form stability as a function of humidity, a DVS isotherm plot of Form A was collected at 25° C.

[2] = Solid form stability on heating and cooling, checked by XRPD; format: physicochemical; conditions: cooling down to room temperature under nitrogen protection, re-exposure to ambient conditions
Description: A PANalytical Empyrean X-ray powder diffractometer was used to collect X-ray diffraction patters as described herein. The diffraction peak position was calibrated using a PANalytical Si reference standard disc.
Form D was generated via vacuum dry of Form X. The XRPD pattern for Form D is provided in FIG. 3A and characteristic peaks are summarized in Table 20. […] (peak temperature) before a possible melting peak at 204.0° C. (peak temperature).
Form E was generated via liquid diffusion in BuOH/n-heptane of Form A at RT. […] (peak temperature) before possible melting peak at 203.1° C. (peak temperature). […] As evidenced by the presence of n-butanol methylene proton at ~3.7 ppm (1.5:1, molar ratio of n-butanol/API) detected by ^1H NMR in FIG. 4D, Form E was deemed to be an n-butanol solvate.

## C[C@H](CC[C@](C)(O)C(F)(F)F)[C@H]1CC[C@H]2[C@@H]3CC=C4C[C@@](C)(O)CC[C@]4(C)[C@H]3CC[C@]12C [Form A]
[1]; 25° C./80% RH
  water uptake (DVS): 0.05%
[1]; DVS isotherm collected at 25° C.
  form change after DVS test (XRPD overlay before and after): no form change
[1]; from DVS at 25° C./80% RH
  hygroscopicity: non-hygroscopic

## C[C@H](CC[C@](C)(O)C(F)(F)F)[C@H]1CC[C@H]2[C@@H]3CC=C4C[C@@](C)(O)CC[C@]4(C)[C@H]3CC[C@]12C [Form D]
[2]; heating to 150° C.
  solid form after heating (XRPD): converted to Form A

## C[C@H](CC[C@](C)(O)C(F)(F)F)[C@H]1CC[C@H]2[C@@H]3CC=C4C[C@@](C)(O)CC[C@]4(C)[C@H]3CC[C@]12C [Form E]
[2]; heating to 140° C.
  solid form after heating (XRPD): converted to Form B
